In paper PMC13061574 (Nature structural & molecular biology, 2024):
Positions count from the first letter of the chain named. Numbers in names are those of the source.

Assays:
THIK1 (K2P13.1) [1] = biological target: T1, THIK1 (K2P13.1) (Homo sapiens, UniProt Q9HB14, R92A); assay: TEVC electrophysiology dose–response, activation; format: cell-based
T1 sequence (Q9HB14 1-408 R92A): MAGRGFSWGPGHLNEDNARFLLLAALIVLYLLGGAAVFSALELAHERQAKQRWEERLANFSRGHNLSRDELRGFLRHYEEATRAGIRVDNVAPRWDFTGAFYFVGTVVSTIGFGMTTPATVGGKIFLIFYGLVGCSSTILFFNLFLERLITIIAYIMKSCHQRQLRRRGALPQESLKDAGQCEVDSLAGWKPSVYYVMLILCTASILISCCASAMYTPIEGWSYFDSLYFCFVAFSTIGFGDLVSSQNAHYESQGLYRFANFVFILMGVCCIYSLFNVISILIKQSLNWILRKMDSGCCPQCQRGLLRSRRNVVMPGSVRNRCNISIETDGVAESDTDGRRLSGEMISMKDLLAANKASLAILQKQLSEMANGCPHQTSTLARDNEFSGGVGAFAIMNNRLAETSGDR

THIK1 (K2P13.1) [2] = biological target: T1, THIK1 (K2P13.1); assay: TEVC electrophysiology, activation; format: cell-based
cryo-EM structure = biological target: the molecule itself; assay: cryo-EM structure

## CCCCC/C=C\C/C=C\CCCCCCCC(=O)O [EIC, linoleic acid]
THIK1 (K2P13.1) [1]
  EC50: 700 nM

## CC/C=C\C/C=C\C/C=C\C/C=C\C/C=C\CCCC(=O)O [EPA, eicosapentanoic acid]
THIK1 (K2P13.1) [2]
  TEVC electrophysiology, activation: α-LNL, eicosapentanoic acid (EPA), dihomo-γ-EIC (DGLA) and oleic acid (OA) also activated R92A

## CCCCCCCC/C=C\CCCCCCCC(=O)O [OA, oleic acid]
THIK1 (K2P13.1) [2]
  TEVC electrophysiology, activation: α-LNL, eicosapentanoic acid (EPA), dihomo-γ-EIC (DGLA) and oleic acid (OA) also activated R92A

B1: THIK1EM (human K2P13.1 (THIK1) residues 1-350, N59Q, N65Q) (domain or fragment, UniProt Q9HB14 1-350, looked up)
chain: MAGRGFSWGPGHLNEDNARFLLLAALIVLYLLGGAAVFSALELAHERQAKQRWEERLAQFSRGHQLSRDELRGFLRHYEEATRAGIRVDNVRPRWDFTGAFYFVGTVVSTIGFGMTTPATVGGKIFLIFYGLVGCSSTILFFNLFLERLITIIAYIMKSCHQRQLRRRGALPQESLKDAGQCEVDSLAGWKPSVYYVMLILCTASILISCCASAMYTPIEGWSYFDSLYFCFVAFSTIGFGDLVSSQNAHYESQGLYRFANFVFILMGVCCIYSLFNVISILIKQSLNWILRKMDSGCCPQCQRGLLRSRRNVVMPGSVRNRCNISIETDGVAESDTDGRRLSGEMISMK
cryo-EM structure
  stoichiometry N: 2

B2: THIK1EM-S136P (domain or fragment, human, UniProt Q9HB14 1-350, looked up)
chain: B1 chain with S136P
cryo-EM structure
  binding result: binds
